Assay results reported in PubChem BioAssay (NCI).
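Five compound concentrations were applied to cells in 96-well plates for 48 hours; endpoints were derived by simple linear interpolation of the resulting dose-response curve. TGI marks complete inhibition of growth.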

Experiments:
Experiment in all cases: growth of human tumour cells (NCI), 48 h
COLO 205 colon = system: COLO 205 colon
U251 CNS = system: U251 CNS
SK-MEL-2 melanoma = system: SK-MEL-2 melanoma
MDA-MB-435 = system: MDA-MB-435
IGROV1 ovarian = system: IGROV1 ovarian
NCI-H23 lung = system: NCI-H23 lung
SW-620 colon = system: SW-620 colon
SK-MEL-28 melanoma = system: SK-MEL-28 melanoma
HOP-92 NSCLC = system: HOP-92 NSCLC
BT-549 breast = system: BT-549 breast
SK-OV-3 ovarian = system: SK-OV-3 ovarian
NCI-H460 lung = system: NCI-H460 lung
HCT-116 colon = system: HCT-116 colon
HCT-15 colon = system: HCT-15 colon
MALME-3M melanoma = system: MALME-3M melanoma
SF-539 CNS = system: SF-539 CNS
PC-3 prostate = system: PC-3 prostate
OVCAR-5 ovarian = system: OVCAR-5 ovarian
SF-295 CNS = system: SF-295 CNS
T-47D breast = system: T-47D breast
MDA-MB-231 breast = system: MDA-MB-231 breast
HS 578T breast = system: HS 578T breast
K-562 leukemia = system: K-562 leukemia
DU-145 prostate = system: DU-145 prostate
HT29 colon = system: HT29 colon
SK-MEL-5 melanoma = system: SK-MEL-5 melanoma
KM12 colon = system: KM12 colon
UACC-257 melanoma = system: UACC-257 melanoma
HOP-62 NSCLC = system: HOP-62 NSCLC
SF-268 CNS = system: SF-268 CNS
A549 NSCLC = system: A549 NSCLC
RPMI-8226 leukemia = system: RPMI-8226 leukemia
M14 melanoma = system: M14 melanoma
SNB-75 CNS = system: SNB-75 CNS
SN12C renal = system: SN12C renal
SR leukemia = system: SR leukemia
EKVX NSCLC = system: EKVX NSCLC
TK-10 renal = system: TK-10 renal
UACC-62 melanoma = system: UACC-62 melanoma
A498 renal = system: A498 renal
MDA-N = system: MDA-N
MOLT-4 leukemia = system: MOLT-4 leukemia
NCI/ADR-RES ovarian = system: NCI/ADR-RES ovarian
RXF 393 renal = system: RXF 393 renal
786-0 renal = system: 786-0 renal
HCC-2998 colon = system: HCC-2998 colon
NCI-H226 lung = system: NCI-H226 lung
OVCAR-8 ovarian = system: OVCAR-8 ovarian
CCRF-CEM leukemia = system: CCRF-CEM leukemia
LOX IMVI melanoma = system: LOX IMVI melanoma
NCI-H522 lung = system: NCI-H522 lung
CAKI-1 renal = system: CAKI-1 renal
OVCAR-4 ovarian = system: OVCAR-4 ovarian
MCF7 breast = system: MCF7 breast
ACHN renal = system: ACHN renal
HL-60(TB) leukemia = system: HL-60(TB) leukemia
OVCAR-3 ovarian = system: OVCAR-3 ovarian
UO-31 renal = system: UO-31 renal
SNB-19 CNS = system: SNB-19 CNS

## CSc1ccc(NC(=O)Nc2cc(C)ccn2)cc1
COLO 205 colon
  TGI: > 100 µM
U251 CNS
  TGI: > 100 µM
SK-MEL-2 melanoma
  TGI: > 100 µM
MDA-MB-435
  TGI: > 100 µM
IGROV1 ovarian
  TGI: > 100 µM
NCI-H23 lung
  TGI: > 100 µM
SW-620 colon
  TGI: > 100 µM
SK-MEL-28 melanoma
  TGI: > 100 µM
HOP-92 NSCLC
  TGI: > 100 µM
BT-549 breast
  TGI: > 100 µM
SK-OV-3 ovarian
  TGI: > 100 µM
NCI-H460 lung
  TGI: > 100 µM
HCT-116 colon
  TGI: > 100 µM
HCT-15 colon
  TGI: > 100 µM
MALME-3M melanoma
  TGI: > 100 µM
SF-539 CNS
  TGI: > 100 µM
PC-3 prostate
  TGI: > 100 µM
OVCAR-5 ovarian
  TGI: > 100 µM
SF-295 CNS
  TGI: > 100 µM
T-47D breast
  TGI: > 100 µM
MDA-MB-231 breast
  TGI: > 100 µM
HS 578T breast
  TGI: > 100 µM
K-562 leukemia
  TGI: > 100 µM
DU-145 prostate
  TGI: > 100 µM
HT29 colon
  TGI: > 100 µM
SK-MEL-5 melanoma
  TGI: > 100 µM
KM12 colon
  TGI: > 100 µM
UACC-257 melanoma
  TGI: > 100 µM
HOP-62 NSCLC
  TGI: > 100 µM
SF-268 CNS
  TGI: > 100 µM
A549 NSCLC
  TGI: > 100 µM
RPMI-8226 leukemia
  TGI: > 100 µM
M14 melanoma
  TGI: > 100 µM
SNB-75 CNS
  TGI: > 100 µM
SN12C renal
  TGI: > 100 µM
SR leukemia
  TGI: > 100 µM
EKVX NSCLC
  TGI: > 100 µM
TK-10 renal
  TGI: > 100 µM
UACC-62 melanoma
  TGI: > 100 µM
A498 renal
  TGI: > 100 µM
MDA-N
  TGI: > 100 µM
MOLT-4 leukemia
  TGI: > 100 µM
NCI/ADR-RES ovarian
  TGI: > 100 µM
RXF 393 renal
  TGI: > 100 µM
786-0 renal
  TGI: > 100 µM
HCC-2998 colon
  TGI: > 100 µM
NCI-H226 lung
  TGI: > 100 µM
OVCAR-8 ovarian
  TGI: > 100 µM
CCRF-CEM leukemia
  TGI: > 100 µM
LOX IMVI melanoma
  TGI: > 100 µM
NCI-H522 lung
  TGI: > 100 µM
CAKI-1 renal
  TGI: > 100 µM
OVCAR-4 ovarian
  TGI: > 100 µM
MCF7 breast
  TGI: > 100 µM
ACHN renal
  TGI: > 100 µM
HL-60(TB) leukemia
  TGI: > 100 µM
OVCAR-3 ovarian
  TGI: > 100 µM
UO-31 renal
  TGI: > 100 µM
SNB-19 CNS
  TGI: > 100 µM

## O=[N+]([O-])C(C(Cl)=C(Cl)Cl)=C(n1nnc2ccccc21)n1nnc2ccccc21
COLO 205 colon
  TGI: 51.9 µM
U251 CNS
  TGI: 62.8 µM
SK-MEL-2 melanoma
  TGI: > 65.3 µM
MDA-MB-435
  TGI: 58.4 µM
IGROV1 ovarian
  TGI: 60.4 µM
NCI-H23 lung
  TGI: > 75.5 µM
SW-620 colon
  TGI: 16.6 µM
SK-MEL-28 melanoma
  TGI: 64.9 µM
HOP-92 NSCLC
  TGI: > 81.6 µM
BT-549 breast
  TGI: 99.6 µM
SK-OV-3 ovarian
  TGI: > 58 µM
NCI-H460 lung
  TGI: > 68.8 µM
HCT-116 colon
  TGI: 50.2 µM
HCT-15 colon
  TGI: 61.7 µM
MALME-3M melanoma
  TGI: 49 µM
SF-539 CNS
  TGI: 53.3 µM
PC-3 prostate
  TGI: > 67.3 µM
OVCAR-5 ovarian
  TGI: > 66.3 µM
SF-295 CNS
  TGI: > 67.9 µM
T-47D breast
  TGI: > 80.6 µM
MDA-MB-231 breast
  TGI: 38.5 µM
HS 578T breast
  TGI: 85.6 µM
K-562 leukemia
  TGI: 30.6 µM
DU-145 prostate
  TGI: > 100 µM
HT29 colon
  TGI: 59.6 µM
SK-MEL-5 melanoma
  TGI: > 67.8 µM
KM12 colon
  TGI: > 70.1 µM
UACC-257 melanoma
  TGI: > 68.1 µM
HOP-62 NSCLC
  TGI: > 68.4 µM
SF-268 CNS
  TGI: 70 µM
A549 NSCLC
  TGI: > 72.4 µM
RPMI-8226 leukemia
  TGI: 56.4 µM
M14 melanoma
  TGI: 50.8 µM
SNB-75 CNS
  TGI: > 58.1 µM
SN12C renal
  TGI: 56.7 µM
SR leukemia
  TGI: 17.4 µM
EKVX NSCLC
  TGI: > 74.6 µM
TK-10 renal
  TGI: > 63.7 µM
UACC-62 melanoma
  TGI: > 58.2 µM
A498 renal
  TGI: > 90 µM
MDA-N
  TGI: 61.2 µM
MOLT-4 leukemia
  TGI: 26.2 µM
NCI/ADR-RES ovarian
  TGI: 55.9 µM
RXF 393 renal
  TGI: 50 µM
786-0 renal
  TGI: 20.4 µM
HCC-2998 colon
  TGI: > 67.1 µM
NCI-H226 lung
  TGI: > 73.9 µM
OVCAR-8 ovarian
  TGI: 48.8 µM
CCRF-CEM leukemia
  TGI: 43.9 µM
LOX IMVI melanoma
  TGI: > 66.3 µM
NCI-H522 lung
  TGI: 38.6 µM
CAKI-1 renal
  TGI: > 54.1 µM
OVCAR-4 ovarian
  TGI: 66.3 µM
MCF7 breast
  TGI: > 55.4 µM
ACHN renal
  TGI: > 65.8 µM
HL-60(TB) leukemia
  TGI: 13.5 µM
OVCAR-3 ovarian
  TGI: 62.4 µM
UO-31 renal
  TGI: 52.6 µM
SNB-19 CNS
  TGI: > 100 µM
